Assays:
[1] = target: GDP-bound NRAS wild-type protein (Homo sapiens, UniProt P01111); test: Binding to NRAS by surface plasmon resonance (SPR), Single Cycle Kinetics; conditions: SPR, GDP-bound NRAS wild-type protein vs GDP-bound KRAS wild-type protein
[2] = target: GDP-bound HRAS wild-type protein (Homo sapiens, UniProt P01112); test: Binding to HRAS by surface plasmon resonance (SPR), Single Cycle Kinetics; conditions: SPR, GDP-bound HRAS wild-type protein vs GDP-bound KRAS wild-type protein
[3] = tested on: human lung cancer strain NCI-H441;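 further: cell proliferation inhibition after four days measured by CellTiter-Glo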

Chain of GDP-bound NRAS wild-type protein (P01111 whole entry): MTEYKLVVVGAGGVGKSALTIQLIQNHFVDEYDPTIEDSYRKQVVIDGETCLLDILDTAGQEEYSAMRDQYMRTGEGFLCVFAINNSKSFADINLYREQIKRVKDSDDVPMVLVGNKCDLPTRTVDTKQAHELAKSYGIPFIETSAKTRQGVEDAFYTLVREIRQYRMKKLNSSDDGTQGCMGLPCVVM
Chain of GDP-bound HRAS wild-type protein (P01112 whole entry): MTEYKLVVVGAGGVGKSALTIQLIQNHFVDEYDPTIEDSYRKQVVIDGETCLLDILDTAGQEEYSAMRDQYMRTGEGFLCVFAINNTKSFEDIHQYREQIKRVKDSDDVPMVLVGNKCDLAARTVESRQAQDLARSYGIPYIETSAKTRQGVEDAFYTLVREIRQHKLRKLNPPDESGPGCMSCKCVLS

SMILES | NRAS/KRAS (ratio of KD value for NRAS to KD value for KRAS) [1] | HRAS/KRAS (ratio of KD value for HRAS to KD value for KRAS) [2] | IC50 [3] [nM]
CCO[C@@H]1C[C@H]2C(=O)NC3(CCC3)C(=O)N(C)[C@@H](C3CCCC3)C(=O)N(C)[C@H](C(=O)N3CCOCC3)CC(=O)N(C)[C@@H](CC(C)C)C(=O)N[C@@H]([C@@H](C)CC)C(=O)N(C)CC(=O)N(C)[C@H]3CCCCCN(C3=O)[C@@H](Cc3ccc(F)c(F)c3)C(=O)N(C)CC(=O)N[C@@H](CCc3cc(F)c(C(F)(F)F)c(F)c3)C(=O)N2C1 [PP0917] | B (a compound having 3 or more and less than 10 is denoted as B) | B (a compound having 3 or more and less than 10 is denoted as B) | 25.2
CCO[C@@H]1C[C@H]2C(=O)NC3(CCC3)C(=O)N(C)[C@@H](C3CCCC3)C(=O)N(C)[C@H](C(=O)N3CCOCC3)CC(=O)N(C)[C@@H](CC(C)C)C(=O)N[C@@H]([C@@H](C)CC)C(=O)N(C)CC(=O)N(C)[C@H]3CCCCCN(C3=O)[C@@H](Cc3nccs3)C(=O)N(C)CC(=O)N[C@@H](CCc3cc(F)c(C(F)(F)F)c(F)c3)C(=O)N2C1 [PP0923] | B (a compound having 3 or more and less than 10 is denoted as B) | B (a compound having 3 or more and less than 10 is denoted as B) | 445
CCCN1C(=O)CN(C)C(=O)CN(C)C(=O)[C@H]([C@@H](C)CC)NC(=O)[C@@H]2CCCCCCC[C@@H](NC(=O)[C@@H]3C[C@@H](OCC)CN3C(=O)[C@H](CCc3cc(F)c(C(F)(F)F)c(F)c3)NC(=O)CN(C)C(=O)[C@@H]1Cc1ccc(C(F)(F)F)cc1)C(=O)N(C)[C@@H](C1CCCC1)C(=O)N(C)[C@H](C(=O)N(C)C)CC(=O)N2C [PP0925] | A (a compound having 10 or more and less than 20 is denoted as A) | B (a compound having 3 or more and less than 10 is denoted as B) | 91
CCO[C@@H]1C[C@H]2C(=O)NC3(CCC3)C(=O)N(C)[C@@H](C3CCCC3)C(=O)N(C)[C@H](C(=O)N(C)C)CC(=O)N(C)[C@@H](Cc3ccccc3C)C(=O)N[C@@H]([C@@H](C)CC)C(=O)N(C)CC(=O)N(C)[C@H]3CCCCCN(C3=O)[C@@H](Cc3ccc(C(F)(F)F)cc3)C(=O)N(C)CC(=O)N[C@@H](CCc3cc(F)c(C(F)(F)F)c(F)c3)C(=O)N2C1 [PP0941] | B (a compound having 3 or more and less than 10 is denoted as B) | B (a compound having 3 or more and less than 10 is denoted as B) | 63.9
CC[C@H](C)[C@@H]1NC(=O)[C@H](CC(C)C)N(C)C(=O)C[C@@H](C(=O)N2CCOCC2)N(CC)C(=O)[C@H](C2CCCC2)N(C)C(=O)C2(CCC2)NC(=O)[C@@H]2CC(F)(F)CN2C(=O)[C@H](CCc2cc(F)c(C(F)(F)F)c(F)c2)NC(=O)CN(C)C(=O)[C@H](Cc2ccc(C(F)(F)F)cc2)N2CCCCC[C@@H](C2=O)N(C)C(=O)CN(C)C1=O [PP0954] | A (a compound having 10 or more and less than 20 is denoted as A) | A (a compound having 10 or more and less than 20 is denoted as A) | 438
CCO[C@@H]1C[C@H]2C(=O)NC(C)(C)C(=O)N(C)[C@@H](C3CCCC3)C(=O)N(CC)[C@H](C(=O)N3CCOCC3)CC(=O)N(C)[C@@H](CC(C)C)C(=O)N[C@@H]([C@@H](C)CC)C(=O)N(C)CC(=O)N(C)[C@H]3CCCCCN(C3=O)[C@@H](Cc3ccc(C(F)(F)F)cc3)C(=O)N(C)CC(=O)N[C@@H](CCc3cc(F)c(C(F)(F)F)c(F)c3)C(=O)N2C1 [PP0958] | B (a compound having 3 or more and less than 10 is denoted as B) | B (a compound having 3 or more and less than 10 is denoted as B) | 1040
CC[C@H](C)[C@@H]1NC(=O)[C@H](CC)N(C)C(=O)C[C@@H](C(=O)N2CCOCC2)N(C)C(=O)[C@H](C2CCCC2)N(C)C(=O)C2(CCCC2)NC(=O)[C@@H]2CCCN2C(=O)[C@H](CCc2ccc(C(F)(F)F)c(Cl)c2)NC(=O)CN(C)C(=O)[C@H](Cc2ccc(F)cc2)N2CCCCC[C@@H](C2=O)N(C)C(=O)CN(C)C1=O [PP0959] | B (a compound having 3 or more and less than 10 is denoted as B) | B (a compound having 3 or more and less than 10 is denoted as B) | 156
CC[C@H](C)[C@@H]1NC(=O)[C@H](Cc2ccccc2)N(C)C(=O)C[C@@H](C(=O)N2CCOCC2)N(C)C(=O)[C@H](C2CCCC2)N(C)C(=O)C2(CCCC2)NC(=O)[C@@H]2CCCN2C(=O)[C@H](CCc2ccc(C(F)(F)F)c(Cl)c2)NC(=O)CN(C)C(=O)[C@H](Cc2ccc(F)cc2)N2CCCCC[C@@H](C2=O)N(C)C(=O)CN(C)C1=O [PP0961] | B (a compound having 3 or more and less than 10 is denoted as B) | B (a compound having 3 or more and less than 10 is denoted as B) | 53.6
CC[C@H](C)[C@@H]1NC(=O)[C@H](Cc2cccc(F)c2)N(C)C(=O)C[C@@H](C(=O)N2CCOCC2)N(C)C(=O)[C@H](C2CCCC2)N(C)C(=O)C2(CCCC2)NC(=O)[C@@H]2CCCN2C(=O)[C@H](CCc2ccc(C(F)(F)F)c(Cl)c2)NC(=O)CN(C)C(=O)[C@H](Cc2ccc(F)cc2)N2CCCCC[C@@H](C2=O)N(C)C(=O)CN(C)C1=O [PP0962] | B (a compound having 3 or more and less than 10 is denoted as B) | B (a compound having 3 or more and less than 10 is denoted as B) | 83.9
CC[C@H](C)[C@@H]1NC(=O)[C@H](Cc2cccc(Cl)c2)N(C)C(=O)C[C@@H](C(=O)N2CCOCC2)N(C)C(=O)[C@H](C2CCCC2)N(C)C(=O)C2(CCCC2)NC(=O)[C@@H]2CCCN2C(=O)[C@H](CCc2ccc(C(F)(F)F)c(Cl)c2)NC(=O)CN(C)C(=O)[C@H](Cc2ccc(F)cc2)N2CCCCC[C@@H](C2=O)N(C)C(=O)CN(C)C1=O [PP0963] | B (a compound having 3 or more and less than 10 is denoted as B) | B (a compound having 3 or more and less than 10 is denoted as B) | 100
CC[C@H](C)[C@@H]1NC(=O)[C@H](CC(C)C)N(C)C(=O)C[C@@H](C(=O)N2CCOCC2)N(C)C(=O)[C@H](C2CCCC2)N(C)C(=O)C2(CCC2)NC(=O)[C@@H]2[C@@H](OCC3CCCC3)CCN2C(=O)[C@H](CCc2cc(F)c(C(F)(F)F)c(F)c2)NC(=O)CN(C)C(=O)[C@H](Cc2ccc(C(F)(F)F)cc2)N2CCCCC[C@@H](C2=O)N(C)C(=O)CN(C)C1=O [PP1011] | A (a compound having 10 or more and less than 20 is denoted as A) | B (a compound having 3 or more and less than 10 is denoted as B) | 314
CCO[C@@H]1C[C@H]2C(=O)NC3(CCC3)C(=O)N(C)[C@@H](C3CCCC3)C(=O)N(C)[C@H](C(=O)N(C)C)CC(=O)N(CC)[C@@H](CC(C)C)C(=O)N[C@@H]([C@@H](C)CC)C(=O)N(C)CC(=O)N(C)[C@H]3CC(C)=CCN(C3=O)[C@@H](Cc3ccc(C(F)(F)F)cc3)C(=O)N(C)CC(=O)N[C@@H](CCc3cc(F)c(C(F)(F)F)c(F)c3)C(=O)N2C1 [PP1037] | C (A compound having a KD ratio of 0.1 or more and less than 3 is denoted as C) | C (A compound having a KD ratio of 0.1 or more and less than 3 is denoted as C) | 296

From patent US20240158446A1, “CYCLIC COMPOUND HAVING SELECTIVE INHIBITORY ACTION ON KRAS OVER HRAS AND NRAS” (CHUGAI SEIYAKU KABUSHIKI KAISHA, priority 2021, published 2024)
